Experimental findings from EP4610257A1, “CRYSTAL FORM OF ISOQUINOLINONE COMPOUND AND PREPARATION METHOD THEREFOR” (Jiangsu Hengrui Pharmaceuticals Co., Ltd., priority 2022, dated 2024) are described below.

The target in one series is PDE4B1 (Homo sapiens, UniProt Q07343). Description: In vitro PDE4B enzyme activity assay, IMAP FP-based. As to conditions: for inhibition at 2 µM: read-out: Inhibition rate (%) PDE4B1(2000 nM).
The next series can be described thus: in vivo. Also noted: species or system ICR mice. As to conditions: both sexes, ICR, mouse, inhaled or intranasal. How it is done:
Test Example 3: PK Assay by Intratracheal Administration
Time points for plasma collection were: 0.25 h, 0.5 h, 1 h, 2 h, 4 h, 8 h, 12 h, and 24 h. […] Time points for lung tissue collection were: 0.5 h, 2 h, 8 h, and 24 h.
30.0 µL of plasma sample was added to a 1.5 mL centrifuge tube, and 150 µL of an internal standard working solution was added. […] 70.0 µL of the supernatant was added to a 96-well plate, and 70.0 µL of deionized water was added. The resulting mixture was well shaken, and 2.00 µL of the mixture was taken for LC-MS/MS analysis.
An appropriate amount of the lung tissue sample was accurately weighed out and placed into a homogenate tube, and acetonitrile was added at a volume equivalent to 5 times the weight of the sample. The mixture was homogenized and ultrasonicated for 5 min. 20.0 µL of the lung tissue homogenate sample was taken, and 30.0 µL of an internal standard working solution and 200 µL of acetonitrile were added. […] 100 µL of the supernatant was added to a 96-well plate, and 100 µL of deionized water was added.

For a further series, the target named is PDE3A (Homo sapiens, UniProt Q14432). Description: In vitro PDE3A enzyme activity assay, IMAP FP-based.
PDE3A, sequence (Q14432 669-1141 limits assumed): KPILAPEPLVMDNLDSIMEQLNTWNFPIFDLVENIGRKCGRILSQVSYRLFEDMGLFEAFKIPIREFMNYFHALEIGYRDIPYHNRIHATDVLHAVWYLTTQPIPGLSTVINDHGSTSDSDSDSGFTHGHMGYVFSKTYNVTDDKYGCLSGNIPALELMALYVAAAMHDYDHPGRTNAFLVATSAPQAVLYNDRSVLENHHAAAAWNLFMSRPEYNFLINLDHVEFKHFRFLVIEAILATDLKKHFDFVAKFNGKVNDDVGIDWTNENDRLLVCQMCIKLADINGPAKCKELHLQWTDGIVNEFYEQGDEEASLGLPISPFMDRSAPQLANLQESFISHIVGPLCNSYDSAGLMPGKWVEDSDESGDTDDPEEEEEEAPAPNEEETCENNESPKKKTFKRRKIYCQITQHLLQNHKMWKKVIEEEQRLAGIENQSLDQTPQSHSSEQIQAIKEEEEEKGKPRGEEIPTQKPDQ

PDE4B1, sequence (Q07343 whole entry): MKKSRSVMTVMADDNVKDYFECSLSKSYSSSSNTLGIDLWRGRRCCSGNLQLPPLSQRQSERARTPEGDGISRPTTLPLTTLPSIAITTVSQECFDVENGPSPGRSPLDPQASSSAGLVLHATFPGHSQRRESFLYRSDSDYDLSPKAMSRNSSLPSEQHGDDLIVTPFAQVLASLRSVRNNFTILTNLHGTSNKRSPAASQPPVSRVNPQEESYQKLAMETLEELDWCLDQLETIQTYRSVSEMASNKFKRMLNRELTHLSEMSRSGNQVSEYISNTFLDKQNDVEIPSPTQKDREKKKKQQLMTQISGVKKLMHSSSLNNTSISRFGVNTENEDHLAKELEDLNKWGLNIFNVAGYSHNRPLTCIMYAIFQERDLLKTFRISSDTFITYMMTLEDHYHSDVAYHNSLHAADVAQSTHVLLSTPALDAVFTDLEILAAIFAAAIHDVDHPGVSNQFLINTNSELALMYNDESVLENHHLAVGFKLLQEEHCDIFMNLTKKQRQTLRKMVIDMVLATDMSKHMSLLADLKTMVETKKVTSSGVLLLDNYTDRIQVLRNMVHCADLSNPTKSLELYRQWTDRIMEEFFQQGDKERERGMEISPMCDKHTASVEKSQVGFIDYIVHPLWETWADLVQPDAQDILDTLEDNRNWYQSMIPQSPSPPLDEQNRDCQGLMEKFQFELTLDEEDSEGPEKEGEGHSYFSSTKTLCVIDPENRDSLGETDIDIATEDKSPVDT

What is called IC50 is the concentration that gives 50% inhibition. The low end stands for higher potency, the high end for lower potency. The inhibition is the share of the control response that was lost under treatment. For `CCOc1cc2c(cc1OC)-c1cc(=Nc3c(C)cc(C)cc3C)n(CCN3CCOC3=O)c(=O)n1CC2` [WX001], on PDE4B1, the IC50 was 876 nM and the inhibition at 2 µM is 66.3%.
Broadly, the half-life is the time needed for the level to fall by half in the phase considered. Low readings indicate rapid decline, high ones slow decline. A word on the Tmax: it is the time from dosing to the highest level. As for `COc1cc2c(cc1OC)-c1cc(=Nc3c(C)cc(C)cc3C)n(CCNC(N)=O)c(=O)n1CC2` [RPL554, 9,10-dimethoxy-2-(2,4,6-trimethylphenylimino)-3-(N-carbamoyl-2-aminoethyl)-3,4,6,7-tetrahydro-2H-pyrimido[6,1-a]isoquinolin-4-one], in “in vivo”, the half-life is 52.8 min. The time to peak (Tmax) in the series “in vivo” (Plasma Tmax (h)) came out at 15 min. Besides, at PDE4B1, 110 nM corresponded to half-maximal inhibition (IC50) and the inhibition at 2 µM was 64.2%. This compound came in with an IC50 against PDE3A of 0.25 nM. On PDE3A (read-out: Inhibition rate (%) PDE3A (500 nM)), the inhibition at 0.5 µM came out at 99.2%.
